Structures are written as SMILES. ≈ marks a conversion by molar mass, not a printed value. Read-outs that look alike come from different tables or passages of the source.

What is called solubility is the concentration that dissolves in the medium under given conditions.

The nature of series [1]: Solubility test in water, methanol and isopropanol. Format: physicochemical.
Experimental: The solubility in water, methanol, and isopropanol of the compounds of the present disclosure and the comparative compounds were measured separately.
Series [2] is described as follows: Accelerated stability test. It is filed as physicochemical. Conditions: 40° C.±2° C., relative humidity 75%+5%. The method, then: The compound of the present disclosure was placed at a temperature of 40° C.±2° C. and a relative humidity of 75%+5% for 6 months, and samples were taken to determine for the descriptions, related substances, and contents.
Series [3] concerns histamine-induced asthma in guinea pigs. Description: Antiasthmatic effect on histamine-induced asthma in guinea pigs (latency period). Format: in vivo, guinea pig. The settings on record: 1 mg/kg oral gavage, sixty minutes after administration; no asthma within 8 minutes counted as 8 minutes; X ± s, n = 5. The method, then:
The guinea pigs were placed in a polymethyl methacrylate bell jar and a histamine hydrochloride solution was sprayed ultrasonically (0.8 mg/mL) for 40 seconds. The time point at which the guinea pigs developed asthma was recorded. The time of convulsion and fall was taken as the latency period. Guinea pigs with a latency period exceeding 180 seconds were not selected. […] The guinea pigs were administered by oral gavage at a dose of 2 mL/kg·bw. Sixty minutes after the administration, the guinea pigs were placed in bell jars, and histamine hydrochloride solution was sprayed under the same conditions as in the previous selection. The latency period for the onset of asthma was recorded. […] The results were processed statistically.

Series [4] concerns isolated ileal smooth muscle of guinea pigs. Description: Effect on muscle tone of isolated ileal smooth muscle of guinea pigs (no histamine added). Details: species or system guinea pig. Conditions: 5 minutes after adding the drug, X ± s, n = 8. As to the method: The guinea pig was knocked unconscious with a wooden stick, and the abdomen was immediately dissected to separate the ileum about 15 cm in length. The contents of the intestinal segment were flushed with Tyrode's solution and placed in Tyrode's solution at a constant temperature of 37° C. for later use, and oxygen was supplied simultaneously. The experimental intestinal tract (1 cm in length) was cut and placed into 20 ml of Tyrode's solution at a constant temperature of 37° C. with a continuous oxygen supply. One end of the intestine was fixed on the ventilation hook and the other end was connected to the muscle tone transducer and led to the computer interface. The muscle tone value of the ileal smooth muscle was recorded with a BL system. The experiment was carried out after the intestinal segment contraction became stable. […] The operation was repeated 8 times. The antispasmodic percentage was calculated according to the following formula. [formula]

Setting [5] is: isopropanol, organic solvent or mixture, isopropanol, read-out: Solubility, Isopropanol.
The mark [6] stands for this setting: methanol, organic solvent or mixture, methanol, read-out: Solubility, Methanol.
[7] abbreviates: water, read-out: Solubility, Water.

Turning to `O=C1Cc2ccccc2C(=C2CCN(COP(=O)(O)O)CC2)c2ccsc21` [Compound III-1], the values for the solubility in series [1] (setting [5]) and in series [1] (setting [6]) were 24 mg/mL (≈ 59.2 mM) and 35 mg/mL (≈ 86.3 mM), respectively.
Turning to `O=C1Cc2ccccc2C(=C2CCN(CCOP(=O)(O)O)CC2)c2ccsc21` [Compound III-2], the solubility in series [1] (isopropanol, organic solvent or mixture, read-out: Solubility, Isopropanol) is 24 mg/mL (≈ 57.2 mM).
Turning to `O=C1Cc2ccccc2C(=C2CCN(CCCOP(=O)(O)O)CC2)c2ccsc21` [Compound III-3], the solubility in series [1] (setting [6]) is 35 mg/mL (≈ 80.7 mM).
As to `O=C1Cc2ccccc2C(=C2CCN(CCCCOP(=O)(O)O)CC2)c2ccsc21` [Compound III-4], the solubility worked out at 24 mg/mL (≈ 53.6 mM) in series [1] (setting [5]) and 35 mg/mL (≈ 78.2 mM) in series [1] (setting [6]).
On the same counts, the results for `O=C1Cc2ccccc2C(=C2CCN(CCCOCOP(=O)(O)O)CC2)c2ccsc21` [Compound III-7] are 24 mg/mL (≈ 51.8 mM) and 38 mg/mL (≈ 82 mM).
Turning to `O=C1Cc2ccccc2C(=C2CCN(CCCCCOCOP(=O)(O)O)CC2)c2ccsc21` [Compound III-9], the solubility turned out to be 24 mg/mL (≈ 48.8 mM) in series [1] (setting [5]) and 38 mg/mL (≈ 77.3 mM) in series [1] (setting [6]).
As for `O=C1Cc2ccccc2C(=C2CCN(COP(=O)([O-])[O-])CC2)c2ccsc21.[Na+].[Na+]` [Compound IV-1], the results for the solubility in series [1] (setting [5]), in series [1] (setting [6]) and in series [1] (setting [7]) were 1 mg/mL, 35 mg/mL and 488 mg/mL, respectively. Besides, the Content in series [2] (Month 1) is 99.7%; in series [2] (Month 3) it was 99.6%.
With `O=C1Cc2ccccc2C(=C2CCN(CCOP(=O)([O-])[O-])CC2)c2ccsc21.[K+].[K+]` [Compound IV-2], the Content in series [2] (Month 1) worked out at 99.7%; in series [2] (Month 2), 99.7%; in series [2] (Month 6) it was 99.6%.
Regarding `O=C1Cc2ccccc2C(=C2CCN(CCCOP(=O)(O)O)CC2)c2ccsc21` [Compound IV-3], the figures for the solubility in series [1] (setting [6]) and in series [1] (setting [7]) were 38 mg/mL (≈ 87.7 mM) and 404 mg/mL (≈ 932 mM), respectively.
Regarding `O=C1Cc2ccccc2C(=C2CCN(CCCCOP(=O)([O-])[O-])CC2)c2ccsc21.[Na+].[Na+]` [Compound IV-4], the solubility in series [1] (setting [5]) came out at 1 mg/mL; in series [1] (setting [6]) it was 35 mg/mL; in series [1] (setting [7]) it was 476 mg/mL. Further, the Content is listed as 99.7% in series [2] (Month 1) and 99.6% in series [2] (Month 3).
Consider `O=C1Cc2ccccc2C(=C2CCN(CCCCCOP(=O)([O-])[O-])CC2)c2ccsc21.[Na+].[Na+]` [Compound IV-5], for which the solubility in series [1] (setting [5]) turned out to be 1 mg/mL; in series [1] (setting [7]) it was 478 mg/mL.
In the case of `O=C1Cc2ccccc2C(=C2CCN(CCOCOP(=O)(O)O)CC2)c2ccsc21` [Compound IV-6], in series [2] (Month 3), the Content is recorded as 99.6%.
Take `O=C1Cc2ccccc2C(=C2CCN(CCCCOCOP(=O)([O-])[O-])CC2)c2ccsc21.[Na+].[Na+]` [Compound IV-8]: the Content in series [2] (Month 1) was 99.7%; in series [2] (Month 2), 99.7%; in series [2] (Month 6) it was 99.6%.
On to `O=C1Cc2ccccc2C(=C2CCN(CCCCCOCOP(=O)([O-])[O-])CC2)c2ccsc21.[Na+].[Na+]` [Compound IV-9], for which the solubility came to 2 mg/mL in series [1] (setting [5]), 35 mg/mL in series [1] (setting [6]) and 473 mg/mL in series [1] (setting [7]).
With `OCCCCN1CCC(=C2c3ccc(Cl)cc3CCc3cccnc32)CC1` [Hydroxybutyl desloratadine, hydroxybutyl desloratadine, reference compound], the values for the solubility in series [1] (setting [5]) and in series [1] (setting [6]) were 28 mg/mL (≈ 73.1 mM) and 22 mg/mL (≈ 57.5 mM), respectively.
Consider `OCCN1CCC(=C2c3ccc(Cl)cc3CCc3cccnc32)CC1` [Hydroxyethyl desloratadine, hydroxyethyl desloratadine, reference compound], for which the solubility in series [1] (setting [5]) turned out to be 21 mg/mL (≈ 59.2 mM); in series [1] (setting [6]), 27 mg/mL (≈ 76.1 mM).
On the same counts, the results for `OCCCCCCN1CCC(=C2c3ccc(Cl)cc3CCc3cccnc32)CC1` [Hydroxyhexyl desloratadine, hydroxyhexyl desloratadine, reference compound] are 32 mg/mL (≈ 77.9 mM) and 15 mg/mL (≈ 36.5 mM).
In the case of `OCCCCCN1CCC(=C2c3ccc(Cl)cc3CCc3cccnc32)CC1` [Hydroxypentyl desloratadine, hydroxypentyl desloratadine, reference compound], the solubility came to 29 mg/mL (≈ 73.1 mM) in series [1] (setting [5]) and 19 mg/mL (≈ 47.9 mM) in series [1] (setting [6]).
With `OCCCN1CCC(=C2c3ccc(Cl)cc3CCc3cccnc32)CC1` [Hydroxypropyl desloratadine, hydroxypropyl desloratadine, reference compound], the values for the solubility in series [1] (setting [5]) and in series [1] (setting [6]) were 26 mg/mL (≈ 70.5 mM) and 24 mg/mL (≈ 65.1 mM), respectively.
`CN1CCC(=C2c3ccccc3CC(=O)c3sccc32)CC1` [Ketotifen, ketotifen]: the solubility was determined as 20 mg/mL (≈ 64.6 mM) in series [1] (setting [5]) and 30 mg/mL (≈ 97 mM) in series [1] (setting [6]). Also, the “Post-administration latency period” value in series [3] was found to be 263.11 ± 54.90 s. For the same compound, in series [4], the “Smooth muscle tone (g) After administration” value was determined as 1.30 ± 0.30 g. Moreover, the “Antispasmodic percentage (%)” value in series [4] (no histamine) is 23.53 ± 10.10%.
`Cc1cncc(CN2CCC(=C3c4ccccc4CC(=O)c4sccc43)CC2)c1` [Rupatifen, rupatifen, reference compound]: the solubility in series [1] (setting [5]) was 20 mg/mL (≈ 49.9 mM); in series [1] (setting [6]), 30 mg/mL (≈ 74.9 mM).
